Measured values from patent US11325892B2, “Compounds and methods for treating cancer” (Mayo Foundation for Medical Education and Research, priority 2014, dated 2022).

Legend:
Type in all cases: cell-based
[1] = test system: GADD45a, DDIT3, HERPUD1 transcripts in THJ29T, THJ16T, and KTC2; test: QPCR of UPR markers in ATC cells; conditions: 10 μM, 24 hours; all cell lines; OA restored expression to control levels
Source text: RNA isolation, preparation of cDNA, and QPCR performed as previously described (Tun H W, Marlow L A, von Roemeling C A, Cooper S J, Kreinest P, Wu K, Luxon B A, Sinha M, Anastasiadis P Z, Copland J A. Pathway signature and cellular differentiation in clear cell renal cell carcinoma. PLoS One. 2010; 5(5):e10696). TaqMan®CDFAM™ dye-labeled probes: GAPDH(Hs99999905_ml), POLR2A(Hs00172187_ml), SCD/(Hs01682761_HSPA5(Hs99999174_ml), GADD45A(Hs00169255_ml), DD/T3(Hs01090850_ml), and HERPUD/(Hs01124269_ml). Fold-change comparisons between normal vs. tumor, and DMSO vs. drug treated samples calculated using the […] method (Schmittgen T D, Livak K J. Analyzing real-time PCR data by the comparative C(T) method. Nat Protoc. 2008; 3 (6): 1101-8).
Exogenous application of MUFAs, such as oleic or palmitoleic acid, can rescue the proliferative defects generated by SCD1 inhibition as these are the primary products of SCD1 enzymatic activity (Roongta U V, Pabalan J G, Wang X, Ryseck R P, Fargnoli J, Henley B J, Yang W P, Zhu J, Madireddi M T, Lawrence R M, Wong T W, Rupnow B A. Cancer cell dependence on unsaturated fatty acids implicates stearoyl-CoA desaturase as a target for cancer therapy. Mol Cancer Res. 2011; 9(11):1551-61). THJ29T, THJ16T and KTC2 cells were treated with the EC50 dose of A939572 or MF-438 for 72H with or without 5 μM of oleic acid (OA). […]

[2] = test system: A498, ACHN, and Caki1 cell lines; test: Oleic acid (OA) rescue assay of cell proliferation in ccRCC cells; conditions: EC50 dose of compound with OA (5 μg/μL); all three cell lines
Experimental: (§1) Cells were seeded at 5,000 cells/well in clear-bottom 96-well plates in triplicate in Maintenance Media. Drug treatment was applied at a concentration of 1:1000 in reduced serum (3%) Maintenance Media. After 72 hours, cells were washed with PBS, and stored at −80° C. prior to analysis using CyQuant® Proliferation Analysis Kit (Invitrogen) as per manufacturers' protocol for relative fluorescence units. Alternatively, cells were plated 2×10^5/well in 12-well plates (Midwest Scientific) in triplicate prior to drug treatment. After 120 hour treatment, cell number was established using a Coulter Particle Counter (Beckman). Or, cells were plated (0.5 or 1×10^5/well) in 24-well plates (Midwest Scientific), 3×. After 72 hour treatment, cell number established using Coulter Particle Counter (Beckman). Oleic acid-albumin (Sigma Aldrich) was added to media at 5 μM, and was applied adjuvant to drug treatment. Drug stocks were prepared in DMSO (Sigma) at 1000×. EC50 dosing per cell line was calculated using CalcuSyn® analytical software.
A498, ACHN, and Caki1 cell lines were treated with the EC50 dose of each MF-438, ChemBL375265, SSI-1, SSI-4, SSI-3, and SSI-2 with or without concomitant application of OA (5 μg/μL). […] Representative images of A498 cell morphology and density treated with each compound +/−OA are shown in (FIG. 2B).

[3] = test system: HK2, a transformed renal epithelial cell line; test: High-throughput proliferative screen, non-cancerous cells
Experimental: as §1
In order to identify potential SCD1 inhibitors, a high-throughput proliferative-based screening method was used, with four ccRCC cell lines including A498, ACHN, Caki1, and Caki2. The SCD1 inhibitor MF-438 was included as a positive control. Known compounds ChemBL375265 (Liu G, Lynch J K, Freeman J, et al. Discovery of potent, selective, orally bioavailable stearoyl-CoA desaturase 1 inhibitors. Journal of medicinal chemistry. Jun. 28, 2007; 50(13): 3086-3100) (SetA.100) and SAR707 (Voss M D, Zoller G, Matter H, et al. Discovery and pharmacological characterization of SAR707 as novel and selective small molecule inhibitor of stearoyl-CoA desaturase (SCD1). European journal of pharmacology. May 5, 2013; 707(1-3): 140-146) (TC03.100) were included as single-blinded positive controls, and are indicated with an asterisk (*). […]

Row | SMILES | transcription of UPR markers GADD45a, DDIT3, HERPUD1 [1] | rescue of cell proliferation with OA [2] | reduction in cell proliferation [3]
1 | CNC(=O)c1cccc(NC(=O)N2CCC(Oc3ccccc3Cl)CC2)c1 [A939572] | transcriptionally upregulated | – | –
2 | Cc1nnc(-c2ccc(N3CCC(Oc4ccccc4C(F)(F)F)CC3)nn2)s1 [MF-438, 2-methyl-5-(6-(4-(2-(trifluoromethyl)phenoxy)piperidin-1-yl)pyridazin-3-yl)-1,3,4-thiadiazole] | – | Near total rescue of cell proliferation | approximately 20%
